{"source": "paper PMC9458111", "about": "“New 1,2,3-Triazole-Coumarin-Glycoside Hybrids and Their 1,2,4-Triazolyl Thioglycoside Analogs Targeting Mitochondria Apoptotic Pathway: Synthesis, Anticancer Activity and Docking Simulation” (Molecules, 2022)", "key": {"MCF-7 cells [1]": {"test_system": "MCF-7 cells", "assay": "Apoptosis detection, Annexin V-FITC flow cytometry", "assay_type": "cell-based, human", "method": "(§1) Cell cycle analysis and apoptosis detection were carried out by flow cytometry. MCF-7 cells were seeded at 1–5 × 10^4 and incubated at 37 °C, 5% CO2 overnight. After treatment with the tested compound 10, for 24 h, cell pellets were collected and centrifuged (300× g, 5 min). For cell cycle analysis, cell pellets were fixed with 70% ethanol on ice for 15 min and collected again [54]. The collected pellets were incubated with propidium iodide (PI) staining solution at room temperature for 1 h. Apoptosis detection was performed by Annexin V-FITC apoptosis detection kit (BioVision, Inc, Milpitas, CA, USA) following the manufacturer’s protocol. The samples were analyzed using FACS Calibur flow cytometer (BD Biosciences, San Jose, CA).\n(§2) Figure 5 Cell cycle analysis and the effect of the target 10 on the percentage of V-FITC-positive annexin staining in MCF-7 cells in comparison with the control. TEXT PRINTED IN THE PICTURE: (C) cpd10: MCF7: 6.07%; MCF7: 18.11%; MCF7: 25.44% | (D) cpd10: MCF7: %DIP G1 41.96%; MCF7: %DIP G2/M 6.61%; MCF7: %DIP S 51.43%"}, "CDK-2/cyclin A2": {"target": "CDK-2/cyclin A2 (Homo sapiens, UniProt P24941)", "assay": "CDK-2/cyclin A2 inhibitory assay (ELISA)", "assay_type": "biochemical", "conditions": "mean of three values; read-out: IC50 (Mean ± SEM), CDK-2/Cyclin A2", "method": "Assay of CDK-2/cyclin A2 was achieved through ELISA using an affinity tag labeled capture antibody. […] After the incubation period, the unrestrained substance has been discarded, and the wells have been washed. The added TMB (3,3′,5,5′-tetramethylbenzidine) substrate was prompted by Horseradish peroxidase (HRP), and blue coloration appeared. This reaction was stopped through the addition of stop solution to complete changing in colour from blue to yellow. The created signals were equivalent to the quantity of bound analyte, and the Robonik P2000 ELISA reader was used to record the intensity at a certain wavelength (450 nm)."}, "[2]": {"test_system": "Bcl-2 protein in MCF-7 cells", "assay": "Bcl-2 protein level in MCF-7 cells (ELISA)", "assay_type": "cell-based, human", "conditions": "MCF-7, 19.6 µM (IC50), 24 h", "method": "(§3) Referring to the cytotoxicity results, the 1,2,4-triazole-thioglycoside derivative 10 has a mitochondria-apoptotic effect on breast cancer cells through reduction of MTT by a mitochondrial enzyme. […] Along with that, such derivative elevated the release of cytochrome c into the cytosol in the treated MCF-7, in comparison with untreated one from 0.176 to 0.766 ng/ml due to disturbing mitochondrial outer membrane permeability (MOMP). In addition, the target 10 achieved better results than those afforded by from the standard 5-fluorouracil. Moreover, the level of caspase-7 was elevated in treated cells with the target 10 rather than that with 5-fluorouracil or the untreated cells as shown in Figure 4.\nBcl-2 (ng/mL) in the samples and standards were estimated as reported. A biotin-conjugated antibody was added followed by streptavidin-HRP. The reaction is then terminated by adding acid and absorbance was measured at 450 nm.\n(§4) Figure 4 Levels of Bax, Bcl-2, Bax/Bcl-2 ratio, cytochrome c and caspase-7 protein in MCF-7 cells after treatment with compound 10 and the standard drug for 24 h compared with the untreated one, 5-flu: 5-fluorouracil as a reference drug."}, "[3]": {"test_system": "human osteosarcoma (HOS cell lines)", "assay": "MTT cytotoxicity assay, HOS", "assay_type": "cell-based", "conditions": "48 h", "method": "The synthesized compounds were studied for their cytotoxic activity against several human cancer cell lines, namely human osteosarcoma (HOS cell lines), human breast adenocarcinoma (MDA-MB-231 cell lines), human breast cancer (MCF-7 cell lines), human colorectal adenocarcinoma (Caco-2 cell lines) and human colon cell line (HCT-116 cell lines) using MTT assay at 100 µM, and the results were outlined as shown in Table 1.\nHuman osteosarcoma (HOS cell line), human breast adenocarcinoma (MDA-MB-231cell lines), human breast cancer (MCF-7 cell lines), human colorectal adenocarcinoma (Caco2 cell lines), human colon cell line (HCT-116 cell lines), normal human cell lines (BJ-1), and “a telomerase immortalized normal foreskin fibroblast cell line” were obtained from Karolinska Center, Department of Oncology and Pathology, Karolinska Institute and Hospital, Stockholm, Sweden.\nFollowing culturing for 10 days, the cells were seeded at concentration of 10 × 10^3 cells per well in case of MCF-7 & MDA, 20 × 10^3 cells/well in a fresh complete growth medium in case of HCT-116, Caco2, & HOS and 40 × 10^3 cells/well in case of BJ-1 at 37 °C for 24 h in a water jacketed carbon dioxide incubator. After 48 h’ incubation, the medium was aspirated, and then 40 μl MTT salt (2.5 mg/mL) were added for a further 4 h; 200 μl 10% sodium dodecyl sulphate (SDS) in deionized water were added to each well and incubated overnight at 37 °C. The absorbance was measured at 595 nm with reference 690 nm. Doxorubicin was used as positive control, and 0.5% DMSO was used as negative control. IC50 values were calculated, using a probit analysis, and by utilizing the SPSS computer program (SPSS for Windows, statistical analysis software package/version 9/1989 SPSS Inc., Chicago, IL, USA)."}, "VEGFR-2": {"target": "VEGFR-2 (Homo sapiens, UniProt P35968)", "sequence (P35968 20-1356)": "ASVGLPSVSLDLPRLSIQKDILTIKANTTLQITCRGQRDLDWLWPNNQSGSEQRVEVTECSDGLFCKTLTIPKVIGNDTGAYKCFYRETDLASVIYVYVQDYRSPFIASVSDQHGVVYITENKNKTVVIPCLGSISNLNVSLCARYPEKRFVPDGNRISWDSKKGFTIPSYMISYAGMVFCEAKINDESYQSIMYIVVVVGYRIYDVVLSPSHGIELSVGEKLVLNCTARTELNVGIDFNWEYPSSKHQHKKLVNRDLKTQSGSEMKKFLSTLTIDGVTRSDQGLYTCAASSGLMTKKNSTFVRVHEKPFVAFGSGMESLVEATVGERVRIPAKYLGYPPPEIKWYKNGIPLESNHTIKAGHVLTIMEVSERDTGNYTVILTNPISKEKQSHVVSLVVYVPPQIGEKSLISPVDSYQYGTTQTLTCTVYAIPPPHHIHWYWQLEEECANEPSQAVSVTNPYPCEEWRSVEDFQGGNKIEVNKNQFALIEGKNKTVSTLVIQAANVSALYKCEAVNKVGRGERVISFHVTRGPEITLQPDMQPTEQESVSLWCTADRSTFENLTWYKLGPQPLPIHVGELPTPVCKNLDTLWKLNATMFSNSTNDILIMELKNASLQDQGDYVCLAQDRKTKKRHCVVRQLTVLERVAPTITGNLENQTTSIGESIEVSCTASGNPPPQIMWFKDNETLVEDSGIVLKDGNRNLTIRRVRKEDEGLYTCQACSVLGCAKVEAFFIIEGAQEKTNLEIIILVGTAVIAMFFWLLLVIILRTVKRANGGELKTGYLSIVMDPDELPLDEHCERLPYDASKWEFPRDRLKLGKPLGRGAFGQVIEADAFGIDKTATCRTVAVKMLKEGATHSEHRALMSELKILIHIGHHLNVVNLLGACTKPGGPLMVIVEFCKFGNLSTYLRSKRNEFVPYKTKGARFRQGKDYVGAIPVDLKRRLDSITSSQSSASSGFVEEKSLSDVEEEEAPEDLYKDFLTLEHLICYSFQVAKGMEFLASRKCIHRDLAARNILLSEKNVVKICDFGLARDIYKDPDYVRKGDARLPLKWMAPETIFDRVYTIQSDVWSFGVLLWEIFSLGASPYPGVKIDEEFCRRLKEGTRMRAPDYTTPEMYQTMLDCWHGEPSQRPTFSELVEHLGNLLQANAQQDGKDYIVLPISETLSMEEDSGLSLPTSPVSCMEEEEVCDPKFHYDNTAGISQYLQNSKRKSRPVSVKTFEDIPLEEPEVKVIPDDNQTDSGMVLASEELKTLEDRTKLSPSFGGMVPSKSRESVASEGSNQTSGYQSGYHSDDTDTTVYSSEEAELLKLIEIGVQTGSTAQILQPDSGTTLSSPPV", "assay": "VEGFR-2 inhibitory assay (ELISA)", "assay_type": "biochemical", "conditions": "mean of three values; read-out: IC50 (Mean ± SEM), VEGFR-2", "method": "The cells were harvested, and the homogenates were prepared in saline using a tight pestle homogenizer until complete cell disruption. The kit uses a double-antibody sandwich enzyme-linked immunosorbent assay (ELISA) to determine the level of human VEGFR-2 in samples. A monoclonal antibody for VEGFR-2 was pre-coated onto 96-well plates. The test samples are added to the wells, and a biotinylated detection polyclonal antibody from goat specific for VEGFR-2 was added subsequently followed by washing with PBS buffer. Avidin-Biotin-Peroxidase complex was added, and the unbound conjugates were washed away with PBS buffer. HRP substrate TMB was used to visualize HRP enzymatic reaction. TMB was catalyzed by HRP to produce a blue color product that changed into yellow after adding acidic stop solution. The density of yellow color is proportional to the human VEGFR-2 amount of the sample captured in the plate. The chroma of color and the concentration of the human VEGFR-2 of the samples were positively correlated, and the optical density was determined at 450 nm. The level of human VEGFR-2 in samples was calculated (pg/ml) as duplicate determinations from the standard curve. Percent inhibition was calculated in comparison to control untreated cells."}, "MCF-7 cells [4]": {"test_system": "MCF-7 cells", "assay": "Cell cycle analysis, PI flow cytometry", "assay_type": "cell-based, human", "method": "as §1, §2"}, "[5]": {"test_system": "Bax protein in MCF-7 cells", "assay": "Bax protein level in MCF-7 cells (ELISA)", "assay_type": "cell-based, human", "conditions": "MCF-7, 19.6 µM (IC50), 24 h", "method": "as §3\nBax protein levels picogram per ml (Pg/mL) were evaluated according to previously reported procedure. Monoclonal antibody, specific to Bax captured on the plate, was added. After incubation, Streptavidin conjugated to Horseradish peroxidase was added. The reaction was then terminated by adding acid and optical density of the color produced measured at 450 nm.\nas §4"}}}
{"smiles": "CCn1c(COc2ccc3c(-c4ccccc4)cc(=O)oc3c2)nnc1SC1OCC(O)C(O)C1O", "note": "[Compound 10, 4-Phenyl-7-((4-ethyl-5-(1-(β-D-xylopyranosyl)thio)-4H-1,2,4-triazol-3-yl)meth-oxy)-2H-chromen-2-one]", "values": [{"measurement": "Secondary late apoptosis", "setting": "MCF-7 cells [1]; MCF-7, 19.6 µM (IC50), 24 h, untreated 0.18", "result": 18.11, "unit": "%"}, {"measurement": "Early apoptosis", "setting": "MCF-7 cells [1]; MCF-7, 19.6 µM (IC50), 24 h, untreated 0.47", "result": 25.44, "unit": "%"}, {"measurement": "Annexin V-FITC staining, third percentage not named in the picture text", "setting": "MCF-7 cells [1]; MCF-7, Figure 5C", "result": 6.07, "unit": "%"}, {"measurement": "IC50", "setting": "CDK-2/cyclin A2", "result": 150, "unit": "nM"}, {"measurement": "Downregulation of anti-apoptotic Bcl-2 protein versus untreated cells", "setting": "[2]", "result": 5.3, "unit": "folds"}, {"measurement": "cytotoxicity at 100 µM", "setting": "[3]", "result": "5.3 ± 0.2", "unit": "%"}, {"measurement": "IC50", "setting": "VEGFR-2", "result": "790 ± 140", "unit": "nM"}, {"measurement": "Increase in the cell percentage at the S phase versus untreated", "setting": "MCF-7 cells [4]; MCF-7, 19.6 µM (IC50), 24 h", "result": 1.7, "unit": "fold"}, {"measurement": "Cell percentage at the S phase", "setting": "MCF-7 cells [4]; MCF-7, 19.6 µM (IC50), 24 h, untreated 29.63%", "result": 51.43, "unit": "%"}, {"measurement": "%DIP G1", "setting": "MCF-7 cells [4]; MCF-7, Figure 5D", "result": 41.96, "unit": "%"}, {"measurement": "%DIP G2/M", "setting": "MCF-7 cells [4]; MCF-7, Figure 5D", "result": 6.61, "unit": "%"}, {"measurement": "Upregulation of pro-apoptotic Bax protein versus untreated cells", "setting": "[5]", "result": 4, "unit": "folds"}]}
